Earlier results as cited in patent US20070196901A1, “Kahalalide-producing bacteria” (priority 2003, published 2007).

Legend:
HIV-1 = conditions: read-out: HIV-1 EC50; antiviral
[1] = system: AIDS-opportunistic infection pathogens; conditions: against AIDS-opportunistic infection pathogens, compared with reference drugs

For kahalalide F [KF], the EC50 (HIV-1) is listed as 14.2 µM, the antifungal activity [1] is listed as “comparable to the activity of the drugs Amphotericin B and Ketoconazole/Rifampin” and the “inhibition of M. tuberculosis” value (M. tuberculosis) is listed as “moderately inhibitory”. The “efficacy in clinical trials against prostate cancer” value (prostate cancer) was “effective”.
